# Measurements: patent US20220227762A1, “AMIDE-SUBSTITUTED IMIDAZO COMPOUNDS AS SELECTIVE INHIBITORS OF INDOLEAMINE 2,3-DIOXYGENASES” (BEIGENE, LTD., priority 2019, published 2022)
# Biological target: T1, IDO1 (Homo sapiens, UniProt P14902)
# T1 construct: endogenous in cells; host or cells: HeLa cells (American Type Culture Collection), induced with human recombinant IFN-γ
# Assay: HeLa Cell-Based IDO1 Kyn (Kynurenine) Production Assay
# Conditions: HeLa cells, IDO1 induced by IFN-γ, 0.4 mM L-Trp, 48 hours incubation, Kyn absorbance at 480 nm; read-out: Cell-Based EC50 (nM) Hela IDO1
# Experimental: HeLa Cell-Based IDO1 Kyn (Kynurenine) Production Assay:
# The inhibitory activity of IDO1 inhibitors is determined by using a colorimetric reaction to measure Kyn generated from L-Trp (L-Tryptophon) oxidation by cellular IDO1 in HeLa cells after induction of IDO1 expression by IFN-γ. Hela cells were obtained from the American Type Culture Collection and recovered in 10% FBS-containing phenol red-free DMEM medium. Cells were plated onto a 96-well plate (100 μl/well) at 8000 cells per well and kept at 37° C. in a humidified incubator supplied with 5% CO2. 4 hours later, Human recombinant IFN-γ (8901SC, CST) was added to cells (final concentration 100 ng/mL) to stimulate endogenous IDO1. Compounds at different concentrations diluted in dimethylsulfoxide (DMSO) were added simultaneously with IFN-γ and 0.4 mM L-Trp. Cells were kept at 37° C. in a humidified incubator supplied with 5% CO2. After 48 hours of incubation, 100 μl supernatant from each well was removed to a new plate. The protein in the medium was precipitated with the addition of 8 μl 6N trichloroacetic acid. The plate was incubated at 60° C. for 30 minutes and then centrifugation at 2500 rpm for 10 minutes to remove sediments. 80 μl supernatants were carefully removed to a new clean plate and added with an equal volume of 2% 4-(Dimethylamino)benzaldehyde (D2004, Sigma) dissolved in glacial acetic acid. The absorbance at 480 nm wavelength derived from Kyn was measured using a PHERAstar FS plate reader (BMG LABTECH). The IC50 for each compound was derived from fitting the dose-response data to the four-parameter logistic model by using XLfit software (IDBS).
# T1 sequence (P14902 whole entry): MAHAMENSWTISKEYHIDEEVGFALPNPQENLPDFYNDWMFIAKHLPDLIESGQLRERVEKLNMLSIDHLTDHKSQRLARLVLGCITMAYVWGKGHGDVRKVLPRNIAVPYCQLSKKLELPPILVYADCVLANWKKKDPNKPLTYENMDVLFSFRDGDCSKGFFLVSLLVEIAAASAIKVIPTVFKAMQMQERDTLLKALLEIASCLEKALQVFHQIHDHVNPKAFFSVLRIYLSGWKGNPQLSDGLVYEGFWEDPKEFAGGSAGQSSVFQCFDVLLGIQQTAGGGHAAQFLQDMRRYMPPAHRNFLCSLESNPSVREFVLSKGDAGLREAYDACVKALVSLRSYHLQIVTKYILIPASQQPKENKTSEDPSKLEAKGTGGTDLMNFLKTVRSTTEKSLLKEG
row,SMILES,EC50
1,"CC(C)NC(=O)c1ccc2nc([C@H](C)[C@H]3CC[C@@H](c4ccnc5ccc(F)cc54)CC3)[nH]c2c1 [Example 2, 2-((R)-1-((1s,4S)-4-(6-fluoroquinolin-4-yl)cyclohexyl)ethyl)-N-isopropyl-1H-benzo[d]imidazole-6-carboxamide]",50.6 nM
2,"CNC(=O)c1ccc2[nH]c(C(C)[C@H]3CC[C@@H](c4ccnc5ccc(F)cc54)CC3)nc2c1 (some centres unmarked) [Example 1, 2-(1-((1s,4s)-4-(6-fluoroquinolin-4-yl)cyclohexyl)ethyl)-N-methyl-1H-benzo[d]imidazole-5-carboxamide]",64.1 nM
3,"Cc1cc(C(=O)NC2CCC2)cc2nc([C@@H](C)[C@H]3CC[C@@H](c4ccnc5ccc(F)cc54)CC3)[nH]c12 [Example 10a, N-cyclobutyl-2-((R)-1-((1s,4S)-4-(6-fluoroquinolin-4-yl)cyclohexyl)ethyl)-7-methyl-1H-benzo[d]imidazole-5-carboxamide]",788 nM
4,"C[C@@H](c1nc2ccc(C(=O)NC(C)(C)C)cc2[nH]1)[C@H]1CC[C@@H](c2ccnc3ccc(F)cc32)CC1 [Example 3, N-(tert-butyl)-2-((R)-1-((1s,4S)-4-(6-fluoroquinolin-4-yl)cyclohexyl)ethyl)-1H-benzo[d]imidazole-6-carboxamide]",74.5 nM
5,"CONC(=O)c1ccc2nc(C(C)[C@H]3CC[C@@H](c4ccnc5ccc(F)cc54)CC3)[nH]c2c1 (some centres unmarked) [Example 7, 2-(1-((1s,4s)-4-(6-fluoroquinolin-4-yl)cyclohexyl)ethyl)-N-methoxy-1H-benzo[d]imidazole-6-carboxamide]",470 nM
6,"CC(c1nc2cc(C(=O)N(C)C)ccc2[nH]1)[C@H]1CC[C@@H](c2ccnc3ccc(F)cc32)CC1 (some centres unmarked) [Example 8, 2-(1-((1s,4s)-4-(6-fluoroquinolin-4-yl)cyclohexyl)ethyl)-N,N-dimethyl-1H-benzo[d]imidazole-5-carboxamide]",46.1 nM
7,"Cc1cc(C(=O)NC2CCC2)cc2nc(C(C)[C@H]3CC[C@@H](c4ccnc5ccc(F)cc54)CC3)[nH]c12 (some centres unmarked) [Example 10, N-cyclobutyl-2-(1-((1s,4s)-4-(6-fluoroquinolin-4-yl)cyclohexyl)ethyl)-7-methyl-1H-benzo[d]imidazole-5-carboxamide]",27.1 nM
8,"Cc1cc(C(=O)NC2CCC2)cc2nc([C@H](C)[C@H]3CC[C@@H](c4ccnc5ccc(F)cc54)CC3)[nH]c12 [Example 10b, N-cyclobutyl-2-((S)-1-((1s,4R)-4-(6-fluoroquinolin-4 yl)cyclohexyl)ethyl)-7-methyl-1H-benzo[d]imidazole-5-carboxamide]",17.1 nM
9,"C[C@@H](c1nc2ccc(C(=O)NC3CCCCC3)cc2[nH]1)[C@H]1CC[C@@H](c2ccnc3ccc(F)cc32)CC1 [Example 6, N-cyclohexyl-2-((R)-1-((1s,4S)-4-(6-fluoroquinolin-4-yl)cyclohexyl)ethyl)-1H-benzo[d]imidazole-6-carboxamide]",40.2 nM
10,"C[C@@H](c1nc2ccc(C(=O)NC3CC3)cc2[nH]1)[C@H]1CC[C@@H](c2ccnc3ccc(F)cc32)CC1 [Example 9, N-cyclopropyl-2-((R)-1-((1s,4S)-4-(6-fluoroquinolin-4-yl)cyclohexyl)ethyl)-1H-benzo[d]imidazole-6-carboxamide]",12.6 nM
11,"C[C@@H](c1nc2ccc(C(=O)NC3CCCC3)cc2[nH]1)[C@H]1CC[C@@H](c2ccnc3ccc(F)cc32)CC1 [Example 5, N-cyclopentyl-2-((R)-1-((1s,4S)-4-(6-fluoroquinolin-4-yl)cyclohexyl)ethyl)-1H-benzo[d]imidazole-6-carboxamide]",38.8 nM

# Now from value to compound:
row,EC50,SMILES
1,24.9 nM,"C[C@@H](c1nc2cc(C(=O)NC3CC3)cnc2[nH]1)[C@H]1CC[C@@H](c2ccnc3ccc(F)cc32)CC1 [Example 24, N-cyclopropyl-2-((R)-1-((1s,4S)-4-(6-fluoroquinolin-4-yl)cyclohexyl)ethyl)-3H-imidazo[4,5-b]pyridine-6-carboxamide]"
2,86.7 nM,"C[C@@H](c1nc2ccc(C(=O)Nc3ccccc3)cc2[nH]1)[C@H]1CC[C@H](c2ccnc3ccc(F)cc32)CC1 [Example 15, 2-((R)-1-((1r,4R)-4-(6-fluoroquinolin-4-yl)cyclohexyl)ethyl)-N-phenyl-1H-benzo[d]imidazole-6-carboxamide]"
3,959 nM,"COCCNC(=O)c1ccc2nc([C@H](C)[C@H]3CC[C@H](c4ccnc5ccc(F)cc54)CC3)[nH]c2c1 [Example 12, 2-((R)-1-((1r,4R)-4-(6-fluoroquinolin-4-yl)cyclohexyl)ethyl)-N-(2-methoxyethyl)-1H-benzo[d]imidazole-6-carboxamide]"
4,82.4 nM,"CC(c1nc2cc3c(=O)[nH]cnc3cc2[nH]1)[C@H]1CC[C@@H](c2ccnc3ccc(F)cc32)CC1 (some centres unmarked) [Example 25, 2-(1-((1s,4s)-4-(6-fluoroquinolin-4-yl)cyclohexyl)ethyl)-3,7-dihydro-8H-imidazo[4,5-g]quinazolin-8-one]"
5,> 1000 nM,"C[C@@H](c1nc2ccc(C(=O)NCC3(O)CCC3)cc2[nH]1)[C@H]1CC[C@@H](c2ccnc3ccc(F)cc32)CC1 [Example 16, 2-((R)-1-((1s,4S)-4-(6-fluoroquinolin-4-yl)cyclohexyl)ethyl)-N-((1-hydroxycyclobutyl)methyl)-1H-benzo[d]imidazole-6-carboxamide]"
6,6.9 nM,"CC(c1nc2cc(C(=O)NC3CC3)c(F)cc2[nH]1)[C@H]1CC[C@@H](c2ccnc3ccc(F)cc32)CC1 (stereo partly drawn) [Example 20, N-cyclopropyl-6-fluoro-2-(1-((1s,4S)-4-(6-fluoroquinolin-4-yl)cyclohexyl)ethyl)-1H-benzo[d]imidazole-5-carboxamide]"
7,84.1 nM,"CC(c1nc2ccc(C(=O)NC3COC3)cc2[nH]1)C1CCC(c2ccnc3ccc(F)cc23)CC1 (centres unmarked) [Example 11, 2-(1-(4-(6-fluoroquinolin-4-yl)cyclohexyl)ethyl)-N-(oxetan-3-yl)-1H-benzo[d]imidazole-6-carboxamide]"
8,7.12 nM,"CNC(=O)c1cc2[nH]c(C(C)[C@H]3CC[C@@H](c4ccnc5ccc(F)cc54)CC3)nc2cn1 (mixture of isomers) [Example 23, 2-(1-((1s,4s)-4-(6-fluoroquinolin-4-yl)cyclohexyl)ethyl)-N-methyl-1H-imidazo[4,5-c]pyridine-6-carboxamide]"
9,3.12 nM,"CC(c1nc2cnc(C(=O)NC3CC3)cc2[nH]1)[C@H]1CC[C@@H](c2ccnc3ccc(F)cc32)CC1 (mixture of isomers) [Example 22, N-cyclopropyl-2-(1-((1s,4s)-4-(6-fluoroquinolin-4-yl)cyclohexyl)ethyl)-1H-imidazo[4,5-c]pyridine-6-carboxamide]"
10,8.9 nM,"CC(c1nc2c(F)c(F)c(C(=O)NC3CC3)cc2[nH]1)[C@H]1CC[C@@H](c2ccnc3ccc(F)cc32)CC1 (some centres unmarked) [Example 21, N-cyclopropyl-4,5-difluoro-2-(1-((1s,4s)-4-(6-fluoroquinolin-4-yl)cyclohexyl)ethyl)-1H-benzo[d]imidazole-6-carboxamide]"
11,122 nM,"COC1CCC(NC(=O)c2ccc3nc([C@H](C)[C@H]4CC[C@@H](c5ccnc6ccc(F)cc65)CC4)[nH]c3c2)CC1 (stereo partly drawn) [Example 18, 2-((R)-1-((1s,4S)-4-(6-fluoroquinolin-4-yl)cyclohexyl)ethyl)-N-(4-methoxycyclohexyl)-1H-benzo[d]imidazole-6-carboxamide]"
12,193 nM,"COC1CCC(NC(=O)c2ccc3nc([C@H](C)[C@H]4CC[C@H](c5ccnc6ccc(F)cc65)CC4)[nH]c3c2)CC1 (stereo partly drawn) [Example 19, 2-((R)-1-((1r,4R)-4-(6-fluoroquinolin-4-yl)cyclohexyl)ethyl)-N-(4-methoxycyclohexyl)-1H-benzo[d]imidazole-6-carboxamide]"
13,62.9 nM,"COCCNC(=O)c1ccc2nc([C@H](C)[C@H]3CC[C@@H](c4ccnc5ccc(F)cc54)CC3)[nH]c2c1 [Example 13, 2-((R)-1-((1s,4S)-4-(6-fluoroquinolin-4-yl)cyclohexyl)ethyl)-N-(2-methoxyethyl)-1H-benzo[d]imidazole-6-carboxamide]"
14,> 1000 nM,"C[C@@H](c1nc2ccc(C(=O)NCC3(O)CCC3)cc2[nH]1)[C@H]1CC[C@H](c2ccnc3ccc(F)cc32)CC1 [Example 17, 2-((R)-1-((1 r,4R)-4-(6-fluoroquinolin-4-yl)cyclohexyl)ethyl)-N-((1-hydroxycyclobutyl)methyl)-1H-benzo[d]imidazole-6-carboxamide]"
15,14.4 nM,"C[C@@H](c1nc2ccc(C(=O)Nc3ccccc3)cc2[nH]1)[C@H]1CC[C@@H](c2ccnc3ccc(F)cc32)CC1 [Example 14, 2-((R)-1-((1s,4S)-4-(6-fluoroquinolin-4-yl)cyclohexyl)ethyl)-N phenyl-1H-benzo[d]imidazole-6-carboxamide]"
